Assay [1] concerns the target Histone acetyltransferase KAT7 (Homo sapiens, UniProt O95251). Description: Acetyltransferase Biochemical Assay. The protocol: (§1) The reactions were performed in assay buffer (100 mM Tris-HCl, pH7.8, 15 mM NaCl, 1 mM EDTA, 0.01% Tween-20, 1 mM Dithiothreitol and 0.01% m/v chicken egg white albumin). […] 11-point dilution series of the test compounds were prepared in DMSO; a volume of 100 nL was transferred using a pin tool into assay plates containing substrates, […] control reactions were included on the same plates and received the same amount of DMSO as the compound treated wells. After adding all reagents, the plates were sealed with adhesive seals and incubated for 90 min at room temperature. An additional 4 uL of assay buffer containing AlphaScreen Protein A acceptor beads […] was then added.

Assay [2] concerns the target Histone acetyltransferase KAT5 (Homo sapiens, UniProt Q92993). Description: Acetyltransferase Biochemical Assay. As for the experimental part:
as §1

The structures appear in SMILES notation. pIC50: −log10 of the molar value.

What is called pIC50 is −log10 of the IC50, conventionally taken in molar units. Lower therefore signals a high IC50.

Histone acetyltransferase KAT5, sequence (Q92993 whole entry): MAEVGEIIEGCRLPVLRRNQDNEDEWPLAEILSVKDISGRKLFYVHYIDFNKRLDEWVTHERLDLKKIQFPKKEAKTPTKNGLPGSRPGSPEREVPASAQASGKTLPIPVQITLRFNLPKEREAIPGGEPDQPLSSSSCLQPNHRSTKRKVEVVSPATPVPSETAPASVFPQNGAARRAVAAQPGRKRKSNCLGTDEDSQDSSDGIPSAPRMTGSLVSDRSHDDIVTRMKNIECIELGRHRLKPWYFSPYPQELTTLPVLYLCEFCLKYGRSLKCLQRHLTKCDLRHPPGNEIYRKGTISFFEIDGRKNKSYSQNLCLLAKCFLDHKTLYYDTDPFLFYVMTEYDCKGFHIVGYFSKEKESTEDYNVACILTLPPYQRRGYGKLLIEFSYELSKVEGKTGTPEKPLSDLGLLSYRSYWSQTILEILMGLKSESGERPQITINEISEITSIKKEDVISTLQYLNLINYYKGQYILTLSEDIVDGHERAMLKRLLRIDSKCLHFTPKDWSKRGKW
Histone acetyltransferase KAT7, sequence (O95251 whole entry): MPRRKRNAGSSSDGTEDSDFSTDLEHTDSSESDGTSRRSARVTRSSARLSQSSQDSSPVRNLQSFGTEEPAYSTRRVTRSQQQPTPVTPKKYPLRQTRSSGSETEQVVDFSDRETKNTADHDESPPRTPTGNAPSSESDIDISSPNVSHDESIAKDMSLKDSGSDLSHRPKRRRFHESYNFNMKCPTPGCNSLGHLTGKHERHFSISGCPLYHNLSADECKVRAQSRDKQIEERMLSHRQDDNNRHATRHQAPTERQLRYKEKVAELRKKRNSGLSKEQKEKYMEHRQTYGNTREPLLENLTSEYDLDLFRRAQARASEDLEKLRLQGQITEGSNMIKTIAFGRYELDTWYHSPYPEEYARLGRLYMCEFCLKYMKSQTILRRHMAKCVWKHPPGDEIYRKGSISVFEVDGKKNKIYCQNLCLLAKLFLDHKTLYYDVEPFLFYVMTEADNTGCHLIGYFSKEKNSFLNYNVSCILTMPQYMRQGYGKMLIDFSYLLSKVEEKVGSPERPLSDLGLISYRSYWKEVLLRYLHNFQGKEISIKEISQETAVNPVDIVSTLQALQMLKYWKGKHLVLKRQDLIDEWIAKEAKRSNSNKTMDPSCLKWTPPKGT

As for `O=S(=O)(Nc1cc(-c2ccccc2)on1)C1CC1` [US20240277683, Example 29], the pIC50 in assay [1] and in assay [2] was less than 3.90 throughout.
Regarding `O=S(=O)(Nc1cc(-c2ccccc2)on1)c1ccc2c(c1)CCCC2` [US20240277683, Example 76], in assay [2], the pIC50 was less than 3.90.
On the same count and under the same terms, as for `COc1ccccc1-c1nnc(NS(=O)(=O)C2CCNCC2)s1` [US20240277683, Example 129], the figure is less than 3.90.

These data come from BindingDB's records for patent US20240277683 (Ctxt, 2024).
